The values that follow come from patent publication US20180141962A1, “AZACARBAZOLE BTK INHIBITORS” (MERCK SHARP & DOHME CORP., priority 2015, published 2018).

For orientation: IC50 means the concentration that inhibits the measured activity by half.

T1 sequence (Q06187 whole entry): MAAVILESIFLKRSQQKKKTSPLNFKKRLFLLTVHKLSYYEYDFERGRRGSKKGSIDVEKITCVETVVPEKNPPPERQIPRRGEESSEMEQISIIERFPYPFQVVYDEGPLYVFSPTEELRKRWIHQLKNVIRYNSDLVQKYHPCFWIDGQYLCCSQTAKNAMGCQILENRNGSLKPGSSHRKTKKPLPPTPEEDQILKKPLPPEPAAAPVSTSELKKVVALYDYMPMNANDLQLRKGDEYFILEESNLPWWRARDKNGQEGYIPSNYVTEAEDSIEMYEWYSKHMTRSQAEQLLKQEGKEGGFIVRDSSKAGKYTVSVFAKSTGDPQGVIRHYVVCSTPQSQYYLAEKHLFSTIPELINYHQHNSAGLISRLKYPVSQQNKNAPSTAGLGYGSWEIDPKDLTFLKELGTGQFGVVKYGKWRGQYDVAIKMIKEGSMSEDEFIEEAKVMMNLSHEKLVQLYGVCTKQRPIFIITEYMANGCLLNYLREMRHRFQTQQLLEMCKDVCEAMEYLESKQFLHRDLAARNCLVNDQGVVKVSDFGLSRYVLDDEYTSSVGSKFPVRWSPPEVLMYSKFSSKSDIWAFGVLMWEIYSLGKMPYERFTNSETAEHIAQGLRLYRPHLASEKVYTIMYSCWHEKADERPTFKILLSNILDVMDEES

The first experiment concerns the target T1, BTK enzyme (recombinant full-length BTK, hBTK) (Homo sapiens, UniProt Q06187).
T1 construct: recombinant protein from baculovirus-transfected Sf9 cells: full-length BTK, 6HIS-tag cleaved; 6HIS (cleaved yes); made in house; host or cells: baculovirus-transfected Sf9 cells
In words: Btk enzyme activity assay, LANCE TR-FRET. It is filed as biochemical. The conditions noted are these: 50 pM hBTK, 2 μM biotin-A5-peptide, 25 μM ATP; 60 minute compound & enzyme incubation; 120 minutes reaction; read-out: BTK binding potency IC50. The method, then:
Btk Enzyme Activity Assay Methods
BTK enzymatic activity was determined with the LANCE (Lanthanide Chelate Excite) TR-FRET (lime-resolved fluorescence resonance energy transfer) assay. […] Phosphorylation reactions were allowed to proceed for 120 minutes. […] After 60 minutes incubation with detection reagents, reaction plates were read on a PerkinElmer EnVision plate reader using standard TR-FRET protocol. Briefly, excitation of donor molecules (Eu-chelate:anti-phospho-antibody) with a laser light source at 337 nm produces energy that can be transferred to Dylight-650 acceptor molecules if this donor:acceptor pair is within close proximity. Fluorescence intensity at both 665 nm (acceptor) and 615 nm (donor) are measured and a TR-FRET ratio calculated for each well (acceptor intensity/donor intensity). IC50 values were determined by 4 parameter robust fit of TR-FRET ratio values vs. (Log10) compound concentrations.
Background: In TR-FRET formats the signal depends on donor and acceptor labels being close together.
For `COc1ccc(-c2ccc3c(c2)[nH]c2c(C(N)=O)cnc(N4CCC[C@@]5(CCN(C)C5=O)C4)c23)cn1` [Example 74, 7-(6-methoxypyridin-3-yl)-1-[(5R)-2-methyl-1-oxo-2,7-diazaspiro[4.5]dec-7-yl]-5H-pyrido[4,3-b]indole-4-carboxamide], the IC50 amounted to 8.9 nM.
Turning to `NC(=O)c1cnc(N2CCC[C@]3(CCCN(c4ccc(F)cc4)C3=O)C2)c2c1[nH]c1ccc(F)cc12` [Example 7, 8-fluoro-1-[(6S)-8-(4-fluorophenyl)-7-oxo-2,8-diazaspiro[5.5]undec-2-yl]-5H-pyrido[4,3-b]indole-4-carboxamide], the half-maximal inhibitory concentration (IC50) was found to be 34.2 nM.
Turning to `CS(=O)(=O)N1CCC(c2ccc3[nH]c4c(C(N)=O)cnc(N5CCCC6(CCNC6=O)C5)c4c3c2)CC1` (stereo not drawn) [Example 66, 8-[1-(methylsulfonyl)piperidin-4-yl]-1-(1-oxo-2,7-diazaspiro[4.5]dec-7-yl)-5H-pyrido[4,3-b]indole-4-carboxamide], the IC50 came out at 125 nM.
On the same count and under the same terms, under `COc1cc(-c2ccc3c(c2)[nH]c2c(C(N)=O)cnc(N4CCC[C@@]5(CCNC5=O)C4)c23)ccn1` [Example 69, 7-(2-methoxypyridin-4-yl)-1-[(5R)-1-oxo-2,7-diazaspiro[4.5]dec-7-yl]-5H-pyrido[4,3-b]indole-4-carboxamide] stands 17.5 nM; under `NC(=O)c1cnc(N2CCCC3(CCNC3=O)C2)c2c1[nH]c1cc(C3CCN(CC(=O)O)CC3)ccc12` (stereo not drawn) [Example 59, {4-[4-carbamoyl-1-(1-oxo-2,7-diazaspiro[4.5]dec-7-yl)-5H-pyrido[4,3-b]indol-7-yl]piperidin-1-yl}acetic acid], 1.6 nM.
Take `CC(C)(C)OC(=O)N1CCC2(C1)CN(c1ncc(C(N)=O)c3[nH]c4ccccc4c13)C2` [Example 21, tert-butyl 2-(4-carbamoyl-5H-pyrido[4,3-b]indol-1-yl)-2,6-diazaspiro[3.4]octane-6-carboxylate]: the IC50 came to 435 nM.
Same read-out and setting: under `CC(C)(C)OC(=O)N1CCC2(CCN(c3ncc(C(N)=O)c4[nH]c5ccccc5c34)CC2)C1` [Example 13, tert-butyl 8-(4-carbamoyl-5H-pyrido[4,3-b]indol-1-yl)-2,8-diazaspiro[4.5]decane-2-carboxylate] stands 163 nM.
Turning to `NC(=O)c1cnc(N2CCC3(CC2)CNC(=O)C3)c2c1[nH]c1ccccc12` [Example 10, 1-(3-oxo-2,8-diazaspiro[4.5]dec-8-yl)-5H-pyrido[4,3-b]indole-4-carboxamide], the half-inhibitory concentration (IC50) came to 19.4 nM.
`NC(=O)c1cnc(N2CCC3(CCNCC3)C2)c2c1[nH]c1ccccc12` [Example 15, 1-(2,8-diazaspiro[4.5]dec-2-yl)-5H-pyrido[4,3-b]indole-4-carboxamide]: the half-maximal inhibitory concentration (IC50) worked out at 37.4 nM.
On the same count and under the same terms, under `CC(=O)N1CC2(CCN(c3ncc(C(N)=O)c4[nH]c5ccccc5c34)CC2)C1` [Example 20, 1-(2-acetyl-2,7-diazaspiro[3.5]non-7-yl)-5H-pyrido[4,3-b]indole-4-carboxamide] stands 58.6 nM; under `CC(C)(O)CN1CCC(c2ccc3[nH]c4c(C(N)=O)cnc(N5CCCC6(CCNC6=O)C5)c4c3c2)CC1` (stereo not drawn) [Example 62, 8-[1-(2-hydroxy-2-methylpropyl)piperidin-4-yl]-1-(1-oxo-2,7-diazaspiro[4.5]dec-7-yl)-5H-pyrido[4,3-b]indole-4-carboxamide], 59.7 nM; under `NC(=O)c1cnc(N2CCC[C@@]3(CCNC3=O)C2)c2c1[nH]c1cc(-c3ccc(=O)[nH]c3)ccc12` [Example 68, 1-[(5R)-1-oxo-2,7-diazaspiro[4.5]dec-7-yl]-7-(6-oxo-1,6-dihydropyridin-3-yl)-5H-pyrido[4,3-b]indole-4-carboxamide], 3.9 nM.
As to `COc1ccc(-c2ccc3c(c2)[nH]c2c(C(N)=O)cnc(N4CCC[C@@]5(CCNC5=O)C4)c23)cn1` [Example 67, 7-(6-methoxypyridin-3-yl)-1-[(5R)-1-oxo-2,7-diazaspiro[4.5]dec-7-yl]-5H-pyrido[4,3-b]indole-4-carboxamide], the IC50 is 13.9 nM.
Same read-out and setting: for `NC(=O)c1cnc(N2CCC[C@@]3(CCNC3=O)C2)c2c1[nH]c1cc(-c3cc[nH]c(=O)c3)ccc12` [Example 70, 1-[(5R)-1-oxo-2,7-diazaspiro[4.5]dec-7-yl]-7-(2-oxo-1,2-dihydropyridin-4-yl)-5H-pyrido[4,3-b]indole-4-carboxamide] the value was 5.4 nM; for `NC(=O)c1cnc(N2CCCC3(CCNC(=O)C3)C2)c2c1[nH]c1ccccc12` (stereo not drawn) [Example 37, 1-(8-oxo-2,9-diazaspiro[5.5]undec-2-yl)-5H-pyrido[4,3-b]indole-4-carboxamide], 46.4 nM; for `NC(=O)c1cnc(N2CCCC3(CCNC3=O)C2)c2c1[nH]c1cc(C(=O)O)ccc12` (stereo not drawn) [Example 85, 4-carbamoyl-1-(1-oxo-2,7-diazaspiro[4.5]dec-7-yl)-5H-pyrido[4,3-b]indole-7-carboxylic acid], 448 nM.
`COC(=O)N1CCC(c2ccc3c(c2)[nH]c2c(C(N)=O)cnc(N4CCCC5(CCNC5=O)C4)c23)CC1` (stereo not drawn) [Example 56, methyl 4-[4-carbamoyl-1-(1-oxo-2,7-diazaspiro[4.5]dec-7-yl)-5H-pyrido[4,3-b]indol-7-yl]piperidine-1-carboxylate]: the IC50 came to 3 nM.
As to `O=C(NO)c1cnc(N2CCCC3(CCNC3=O)C2)c2c1[nH]c1ccccc12` (stereo not drawn) [Example 9, N-hydroxy-1-(1-oxo-2,7-diazaspiro[4.5]dec-7-yl)-5H-pyrido[4,3-b]indole-4-carboxamide], the IC50 is 384 nM.
As for `CC(=O)N1CCC(c2ccc3c(c2)[nH]c2c(C(N)=O)cnc(N4CCCC5(CCNC5=O)C4)c23)CC1` (stereo not drawn) [Example 58, 7-(1-acetylpiperidin-4-yl)-1-(1-oxo-2,7-diazaspiro[4.5]dec-7-yl)-5H-pyrido[4,3-b]indole-4-carboxamide], the IC50 stood at 1.4 nM.
Same read-out and setting: for `COC(=O)c1ccc2c(c1)[nH]c1c(C(N)=O)cnc(N3CCCC4(CCNC4=O)C3)c12` (stereo not drawn) [Example 83, Methyl 4-carbamoyl-1-(1-oxo-2,7-diazaspiro[4.5]decan-7-yl)-5H-pyrido[4,3-b]indole-7-carboxylate] the value was 57.2 nM; for `COC(=O)CC1CCC(c2ccc3c(c2)[nH]c2c(C(N)=O)cnc(N4CCC[C@@]5(CCN(C)C5=O)C4)c23)CC1` (stereo partly drawn) [Example 81, methyl (4-{4-carbamoyl-1-[(5R)-2-methyl-1-oxo-2,7-diazaspiro[4.5]dec-7-yl]-5H-pyrido[4,3-b]indol-7-yl}cyclohexyl)acetate], 5.5 nM.
For the compound `NC(=O)c1cnc(N2CCCC3(CCNC3=O)C2)c2c1[nH]c1cc(C3CCCNC3)ccc12` (stereo not drawn) [Example 44, 1-(1-oxo-2,7-diazaspiro[4.5]dec-7-yl)-7-piperidin-3-yl-5H-pyrido[4,3-b]indole-4-carboxamide], the IC50 was 1.6 nM.
On to `CC(C)(O)CN1CCC(c2ccc3c(c2)[nH]c2c(C(N)=O)cnc(N4CCCC5(CCNC5=O)C4)c23)CC1` (stereo not drawn) [Example 54, 7-[1-(2-hydroxy-2-methylpropyl)piperidin-4-yl]-1-(1-oxo-2,7-diazaspiro[4.5]dec-7-yl)-5H-pyrido[4,3-b]indole-4-carboxamide], for which the IC50 was found to be 1.2 nM.
The same measure, in the same setting: under `CC(C)(C)OC(=O)N1CC2(CCCN(c3ncc(C(N)=O)c4[nH]c5ccccc5c34)C2)C1` [Example 28, tert-butyl 6-(4-carbamoyl-5H-pyrido[4,3-b]indol-1-yl)-2,6-diazaspiro[3.5]nonane-2-carboxylate] stands 579 nM; under `NC(=O)c1cnc(N2CCCC3(CCNC3=O)C2)c2c1[nH]c1ccc(C(=O)O)cc12` (stereo not drawn) [Example 84, 4-carbamoyl-1-(1-oxo-2,7-diazaspiro[4.5]dec-7-yl)-5H-pyrido[4,3-b]indole-8-carboxylic acid], 48.8 nM; under `CC(C)N1CCCC2(CCCN(c3ncc(C(N)=O)c4[nH]c5ccccc5c34)C2)C1=O` (stereo not drawn) [Example 39, 1-[8-(1-methylethyl)-7-oxo-2,8-diazaspiro[5.5]undec-2-yl]-5H-pyrido[4,3-b]indole-4-carboxamide], 120 nM.
Take `CC(C)(C)OC(=O)N1CC2(CCN(c3ncc(C(N)=O)c4[nH]c5ccccc5c34)CC2)C1` [Example 16, tert-butyl 7-(4-carbamoyl-5H-pyrido[4,3-b]indol-1-yl)-2,7-diazaspiro[3.5]nonane-2-carboxylate]: the IC50 turned out to be 98.7 nM.
On the same count and under the same terms, under `Cc1noc(C)c1-c1ccc2c(c1)[nH]c1c(C(N)=O)cnc(N3CCC[C@@]4(CCN(C)C4=O)C3)c12` [Example 80, 7-(3,5-dimethylisoxazol-4-yl)-1-[(5R)-2-methyl-1-oxo-2,7-diazaspiro[4.5]dec-7-yl]-5H-pyrido[4,3-b]indole-4-carboxamide] stands 12.7 nM.

Still in this experiment, the particulars now being: BTK binding potency IC50 (nM), 50 pM hBTK, 2 μM biotin-A5-peptide, 25 μM ATP; 60 minute compound & enzyme incubation; 120 minutes reaction.
Consider `NC(=O)c1cnc(N2CCCC3(CCNC3=O)C2)c2c1[nH]c1ccccc12` (stereo in doubt) [Example 41, 1-[(5S)-1-oxo-2,7-diazaspiro[4.5]dec-7-yl]-5H-pyrido[4,3-b]indole-4-carboxamide], for which the IC50 is 10.7 nM.
Same read-out and setting: for `NC(=O)c1cnc(N2CCCC3(CCNC3=O)C2)c2c1[nH]c1ccccc12` (stereo in doubt) [Example 40, 1-[(5R)-1-oxo-2,7-diazaspiro[4.5]dec-7-yl]-5H-pyrido[4,3-b]indole-4-carboxamide] the value was 121 nM.
